One may read the inhibition as how much of the control response was suppressed. Low values mean a response near the control, high ones a response far below the control. One may read the IC50 as the concentration that gives 50% inhibition.

This note sets out measurements from US20070026478A1, “Hemiasterlin affinity probes and their uses” (WYETH, priority 2002, published 2007).

Test [1] has as its target microtubule associated protein (MAP)-rich bovine brain tubulin (bovine) (UniProt P81947).
Test [2] has the same target. Put plainly: reversible binding to bovine brain tubulin (range given in Table 1).
For test [3] the target is unchanged. Kind of test: 100 µM non-radiolabeled Probe 1 against [3H]-Probe 1, tubulin: radiolabeled probe 2.5:2.5.
Test [4] shares this target. Kind of test: 100 µM non-radiolabeled Probe 1 against [3H]-Probe 1, tubulin: radiolabeled probe 2.5:0.25.
Test [5] shares this target. Kind of test: 100 µM non-radiolabeled Probe 1 against 0.25 µM [3H]-Probe 1 photolabeling of tubulin, 37° C.
Test [6] has the same target. Kind of test: 100 µM non-radiolabeled Probe 1 against 0.25 µM [3H]-Probe 1 photolabeling of tubulin, room temperature.
The target is the same in test [7]. Put plainly: change of fluorescence of rhodamine-labeled tubulin.
Test [8] has the same target. Put plainly: 100 µM non-radioactive Probe 2 against 0.25 µM [3H]-Probe 2 photolabeling of tubulin, room temperature.
Test [9] has as its target T1, bovine brain tubulin (Bos taurus, UniProt P81947+Q6B856).
T1 construct: MAP-rich bovine brain tubulin (99% purity), Hela cell tubulin (90% purity); purchased Cytoskeleton (Denver, Colo.); host or cells: bovine brain
Put plainly: Competition of [3H]-Probe 1 photolabeling of tubulin. It counts as binding. The following applies: for Probe 1 photolabeling of tubulin (% of no-competitor control): control (no competitor) = 100; for IC50: read-out: IC50 for inhibition of Probe 1 photolabeling of tubulin. Here is the method: (§1) Alternatively, a cytosolic preparation of KB-3-1 cell lysates (50 μg) or KB-3-1 cells (40,000 cells) were used in the place of purified tubulin above. The supernatant of mechanically disrupted cells centrifuged at 100,000×g was used as a cytosolic preparation. K-3-1 cells were prepared by growing KB-3-1 cells in a 96-well plate and rinsing them with serum free medium.
If whole cells were used, Laemmli sample buffer was then added to lyse the cells.
Low grade SDS (Sigma, catalog No. L5750) was used in the running buffer, when needed, to allow separation of α and β-tubulin subunits. Gels were fixed, stained with Coomassie blue from BioRad (Hercules, Calif.) to ensure equal loading of protein, and sliced. […] Alternatively, gels were incubated with EN^3HANCE according to the manufacturer's instructions (Life Sciences Products, Inc.), washed, and dried prior to exposure of the gel to Biomax MX film from Kodak (Rochester, N.Y.) for fluorography.
After incubation for 30 minutes at 37° C., samples were irradiated with 360 nm UV light for 30 minutes and separated by SDS-PAGE. Gels were exposed to film using fluorographic techniques.
In particular, photolabeling experiments were performed as described in section 7.1.5 above, at both room temperature and at 37° C.

Test [10] has as its target T1, bovine brain tubulin. Kind of test: Reversible binding affinity assay (tubulin fluorescence). Here is the method:
The affinity of both HTI-286 and of non-radiolabled Probe 1 and Probe 2, to bovine brain tubulin was determined by previously published methods (Krishnamurthy et al., Biochem., submitted). Briefly, 5 mg/mL […] tubulin prepared in PEM buffer was pre-incubated with buffer or varying concentrations of test agents in individual quartz cuvettes. The intrinsic tryptophan fluorescence of tubulin (excitation at 560 nm and maximal emission at 580 nm) was measured after pre-incubation for 90 minutes. The change in fluorescence intensity at 580 nm in the presence of compound was fitted to a quadratic equation to obtain apparent dissociation constants (KD) of the test agents.

A further test deals with T2, bovine MAP-rich tubulin (Bos taurus, UniProt P81947+Q6B856).
T2 construct: MAP-rich bovine brain tubulin (99% purity), Hela cell tubulin (90% purity); purchased Cytoskeleton (Denver, Colo.); host or cells: bovine brain
Kind of test: Tubulin polymerization assay in a cell-free system. The note with it: 0.3 μM compound. It counts as biochemical. As to the method:
In vitro tubulin polymerization assays were performed according to procedures that have been described elsewhere (Loganzo et al., Cancer Res. 2003, 63:1838-1845). Briefly, bovine MAP-rich tubulin (final concentration 1.5 mg/mL) was dissolved in cold PEM buffer containing 1 mM GTP (GPEM) and centrifuged at 12,000×g for 10 minutes at 4° C. The tubulin solution (100 μL/well) was added rapidly to wells of a low-volume, 96-well plate already containing duplicate aliquots (10 μL) of test compounds in GPEM. Final compound concentrations were 0.3 μM. Control wells contained the same final concentration of DMSO (0.3%). After initiation of the reaction, absorbance at 340 nm was measured every minute for 60 minutes at 24° C. using a SpectraMax Plus plate reader (Molecular Devices, Sunnyvale, Calif.). An increase in absorbance over time indicated an increase in turbidity resulting from tubulin polymerization.

Another test concerns KB cells. Kind of test: Cell proliferation assay in tissue culture (SRB). Type of test: cell-based. As to the method:
Cell proliferation studies were performed according to procedures described by Loganzo et al. (Cancer Res. 2003, 63:1838-1845). Briefly, KB cells were plated in 96-well plates in 100 μL media at densities pre-determined to produce 60-90% confluence at the time of analysis. Compounds, which were serially diluted into media as 2× stocks, were added to cells in duplicate. After 72 hours of incubation, cell survival was assayed by the SRB assay as described (Rabindran et al., C. Cancer Res. 1998, 58:5850-5858). IC50 values (i.e. the concentration of drug needed to inhibit cell growth by 50%) were used to evaluate drug potency.

Test [11] addresses T3, tubulin (Bos taurus, UniProt P81947+Q6B856).
T3 construct: MAP-rich bovine brain tubulin (99% purity), Hela cell tubulin (90% purity); purchased Cytoskeleton (Denver, Colo.); host or cells: bovine brain
Put plainly: Competition of [3H]-Probe 2 photolabeling of tubulin. Type of test: binding, bovine. Here is the method:
as §1
Competition binding experiments were performed as described in Section 7.1.5. […] Samples were then irradiated for 2 hours at 4° C. and evaluated by SDS-PAGE and fluorography.

The target of another test is T4, α-tubulin (Bos taurus, UniProt P81947+Q6B856).
T4 construct: MAP-rich bovine brain tubulin (99% purity), Hela cell tubulin (90% purity); purchased Cytoskeleton (Denver, Colo.); host or cells: bovine brain
Kind of test: Subtilisin digestion of tubulin after incubation with various compounds. It counts as biochemical, bovine. The note with it: 50 μM drug, subtilisin up to 60 min at room temperature. Here is the method: Tubulin (5 μg) was incubated with 50 μM drug at room temperature for 25 minutes and then digested under native conditions with subtilisin (0.05 μg) for 0, 5, 10, 15, 30 and 60 min at room temperature. Enzymatic digestion was stopped with 1 mM PMSF and samples were resolved by SDS-PAGE under conditions that allowed separation of α- and β-tubulin subunits. Gels were then fixed and stained with Coomassie blue.

The target in test [12] is T3, tubulin. Put plainly: Separation of polymerized and free tubulin by centrifugation. Type of test: biochemical, bovine. The following applies: 50 μM drug, centrifugation at 10,000 g and 100,000 g. Here is the method:
Tubulin (5 μg) was incubated with 50 μM drug at room temperature for 25 minutes and then centrifuged at either 10,000 g for 15 minutes in a tabletop microfuge or at 100,000 g for 15 minutes in an airfuge. The supernatant was carefully removed to a fresh tube to obtain free tubulin and the pellet was solubilized in SDS-PAGE sample buffer.

The mark [13] stands for this setting: 100 μM competitor, 2.5 μM tubulin, 0.25 μM [3H]-Probe 2, room temperature.
The mark [14] stands for this setting: Room Temp., 2.5 μM tubulin, 0.25 μM radiolabeled Probe 1, 100 μM competitor.
[15] abbreviates: room temperature, 2.5 μM tubulin, 0.25 μM radiolabeled Probe 1.
Where [16] appears, read: room temperature, 400-fold molar excess (100 μM) competitor, 2.5 μM tubulin, 0.25 μM radiolabeled Probe 1.

“And” between values parts separate entries of the source, which are not always exact repeats. Equal values may be shown once. Read-outs that look alike come from different tables or passages of the source. Marks after values point to notes of the source that are not given here.

With “Probe 1 (4-benzoyl-N,β,β-trimethyl-L-phenylalanyl-N1-[(1S,2E)-3-carboxy-1-isopropylbut-2-enyl]-N1,3-dimethyl-L-valinamide) (peptide)”, in [1], the tubulin polymerization (% inhibition) came to 88%. This compound also gave a Kd in test [2] of 800 nM. The percent inhibition of tubulin labeling was determined as 82% in test [3] and 93% in [4]. In addition, the Inhibition (%) (labeling against control = 100) in [5] was determined as 24%; in [6] it was 12%.

In the case of “Probe 2 (N,β,β-trimethyl-L-phenylalanyl-4-benzoyl-N-[(1S,2E)-3-carboxy-1-isopropyl-2-butenyl]-N,β,β-trimethyl-L-phenylalaninamide) (peptide)”, the tubulin polymerization (% inhibition) in [1] was 69%. This compound also showed a fold KD against HTI-286 in test [7] of 6 fold. Besides, in test [2], the Kd was 1100 nM and 6000 nM. Moreover, the percent inhibition of Probe 2 labeling (so in the source) in [8] came to 12%.

For the compound `Nc1nc2c(ncn2[C@@H]2O[C@H](COP(=O)(O)OP(=O)(O)OP(=O)(O)O)[C@@H](O)[C@H]2O)c(=O)[nH]1` [GTP, guanosine-5′-triphosphate], on bovine brain tubulin [9] (pre-incubation with between 0 and 100 μM), the “effect on incorporation of Probe 1 into tubulin” value is “did not significantly inhibit incorporation”.

Regarding `CN[C@H](C(=O)N[C@H](C(=O)N(C)[C@H](/C=C(\C)C(=O)O)C(C)C)C(C)(C)c1ccc(C(=O)c2ccccc2)cc1)C(C)(C)c1ccccc1` [Probe 2, N,β,β-trimethyl-L-phenylalanyl-4-benzoyl-N-[(1S,2E)-3-carboxy-1-isopropyl-2-butenyl]-N,β,β-trimethyl-L-phenylalaninamide], the Kd on bovine brain tubulin [10] (Table 1, binding to bovine brain tubulin, read-out: KD) was 1100 to 6000 nM; at bovine brain tubulin [10] (rhodamine-labeled tubulin, 90 minutes pre-incubation, read-out: apparent binding constant (KD), fluorescence method), 3600 nM. For the same compound, the “KD relative to KD of HTI-286” value on bovine brain tubulin [10] (fluorescence method) is “approximately 6 fold”. This compound also yielded an inhibition at 0.3 µM against bovine MAP-rich tubulin of 69%. Besides, the half-inhibitory concentration (IC50) with KB cells (72 hours) was determined as 22.4 ± 0.7 nM; in the test on KB cells (Homo sapiens, KB, 72 h) it was 22 nM. On tubulin [11] (setting [13]), the “inhibition of Probe 2 labeling of tubulin” value is 12%.

As for `CC[C@]1(O)C[C@@H]2CN(CCc3c([nH]c4ccccc34)[C@@](C(=O)OC)(c3cc4c(cc3OC)N(C)[C@H]3[C@@](O)(C(=O)OC)[C@H](OC(C)=O)[C@]5(CC)C=CCN6CC[C@]43[C@@H]65)C2)C1` [Vinblastine], the “reduction of Probe 1 photolabeling of tubulin” value (from here on “reduction”) at bovine brain tubulin [9] (37° C.) is “about 50%”; on bovine brain tubulin [9] (setting [16]), “approximately 72%”. In addition, the “Probe 1 photolabeling of tubulin (% of no-competitor control)” value on bovine brain tubulin [9] (37° C., 100 μM competitor) turned out to be 52 ± 0.5%; at bovine brain tubulin [9] (setting [14]), 28 ± 1%. Besides, at bovine brain tubulin [9] (setting [15]), the IC50 was found to be 22000 nM. At tubulin [11] (setting [13]), the “inhibition of Probe 2 labeling of tubulin” value is 64%. Besides, the “protection of α-tubulin from subtilisin cleavage” value (from here on “protection of α-tubulin”) on α-tubulin is “unable to cleave α-tubulin even after 60 minutes”. The “protein recovered in pellet fractions (tubulin aggregation)” value (from here on “protein recovered in pellet fractions”) at tubulin [12] is “significant amount of protein was recovered”.

Regarding `CC[C@H](C)[C@@H]([C@@H](CC(=O)N1CCC[C@H]1[C@H](OC)[C@@H](C)C(=O)N[C@@H](Cc1ccccc1)c1nccs1)OC)N(C)C(=O)[C@@H](NC(=O)[C@H](C(C)C)N(C)C)C(C)C` [Dolastatin-10], the “reduction” value at bovine brain tubulin [9] (37° C.) is given as “about 75%”; at bovine brain tubulin [9] (setting [16]), “approximately 87%”. Moreover, the “Probe 1 photolabeling of tubulin (% of no-competitor control)” value is listed as 26^† % at bovine brain tubulin [9] (37° C., 100 μM competitor) and 13 ± 3% on bovine brain tubulin [9] (setting [14]). Moreover, the IC50 on bovine brain tubulin [9] (setting [15]) is 5000 nM. Also, the “inhibition of Probe 2 labeling of tubulin” value at tubulin [11] (setting [13]) is 27%. Further, the “protection of α-tubulin” value on α-tubulin is listed as “unable to cleave α-tubulin even after 60 minutes”. Also, the “protein recovered in pellet fractions” value at tubulin [12] is reported as “significant amount of protein was recovered”.

With `CC(=O)O[C@H]1C(=O)[C@@]2(C)[C@H]([C@H](OC(=O)c3ccccc3)[C@]3(O)C[C@H](OC(=O)[C@H](O)[C@@H](NC(=O)c4ccccc4)c4ccccc4)C(C)=C1C3(C)C)[C@]1(OC(C)=O)CO[C@@H]1C[C@@H]2O` [Paclitaxel], the “enhancement of Probe 1 photolabeling of tubulin” value at bovine brain tubulin [9] (37° C.) was 73%. In addition, the “Probe 1 photolabeling of tubulin (% of no-competitor control)” value on bovine brain tubulin [9] (37° C., 100 μM competitor) is 173 ± 7%; on bovine brain tubulin [9] (setting [14]), 83 ± 41%. In addition, the “reduction” value on bovine brain tubulin [9] (setting [16]) is listed as “almost no effect”. The “Probe 2 photolabeling, % of the control value” at tubulin [11] (setting [13]) stood at 113%. Besides, on tubulin [11] (higher concentrations of competitor), the “enhancement of Probe 2 photolabeling” value is listed as “this effect was lost”. Besides, the “protection of α-tubulin” value on α-tubulin is listed as “unable to cleave α-tubulin even after 60 minutes”. The “protein recovered in pellet fractions” value at tubulin [12] is listed as “significant amount of protein was recovered”.
